# Test results as given in US12516043B2, “Stiripentol derivative and use thereof” (National University Corporation Okayama University, priority 2020, dated 2026).
# Tests used:
# [1] = biological target: human LDH1 (tetramer of LDHB) (Homo sapiens, UniProt P07195); assay: Lactate dehydrogenase inhibitory action, enzymatic reaction plus chromogenic reaction (LDH1); type: biochemical; details: FIG. 1B, each n=3
# Procedure: (§1) Evaluation of Lactate Dehydrogenase Inhibitory Action (Compounds Nos. 1 to 10, FIGS. 1 to 5):
# (§2) Lactate dehydrogenase catalyzes production of lactic acid and NAD from pyruvic acid and NADH. […] In order to evaluate the enzymatic activity of lactate dehydrogenase, experiments were carried out using an evaluation system (Patent Literature 1, Non-Patent Literature 9) consisting of an enzymatic reaction (step 1) and a chromogenic reaction (step 2). In the enzymatic reaction of step 1, sodium pyruvate (100 μM), NADH (100 μM) and lactate dehydrogenase (human LDH1 or LDH5) were added, further an inhibitor (Compounds Nos. 1 to 10) different in concentration was added. The mixture was subjected to a reaction carried out in the presence of a 100 mM sodium phosphate buffer (pH 7.3, 37° C.) for 60 minutes (200 μL/well). In this stage, absorbance of the background at 492 nm was measured by a plate reader (absorbance before chromogenic reaction). […] INT changed into INT formazan by the action of diaphorase in the presence of NADH, and absorbance of INT formazan at 492 nm was measured by a plate reader (absorbance after chromogenic reaction). […] Then, the absorbance before chromogenic reaction was subtracted from the absorbance after chromogenic reaction. The value obtained by the above calculation was regarded as an “absorbance change value (ΔA)”. […]
# [2] = Pharmacokinetic evaluation by oral administration to a mouse (HPLC/MS of blood plasma); type: in vivo, ICR mice; details: 50 mg/kg oral, blood plasma thirty minutes later; for in vivo metabolic stability: HPLC (MS for No. 1)
# Procedure: Pharmacokinetic evaluation (compounds Nos. 1, 2, 4 and 9, FIGS. 6 to 10) by oral administration to a mouse:
# For pharmacokinetic study, 6-7 week-old ICR mice were used in experiments. […] A vehicle or each of the compounds (50 mg/kg) were respectively orally administered to a mouse by a disposable sonde. Thirty minutes later, each mouse was decapitated for sampling their blood. Heparin sodium (10 μg/mL) was added to the blood as an anticoagulant. After each blood sample was centrifuged for 15 minutes (1,000 g, 4° C.), the supernatant was obtained as a blood plasma. Subsequently, to extract a compound, ethyl acetate was added to the obtained blood plasma, air-dried with nitrogen gas, and dissolved again with acetonitrile. The sample pretreated in this manner was subjected to the following analysis (HPLC, MS). In performing the HPLC analysis, constituents of the blood plasma were separated by the HPLC system (manufactured by JASCO Corporation) using a C18 reverse-phase column, at a flow rate of 1.0 mL/min. For analysis of the compound No. 1, a mobile phase consisting of acetonitrile (80%) and water (20%) was used, whereas a mobile phase consisting of acetonitrile (70%) and water (30%) was used for analysis of Compounds No. 2, No. 4 and No. 9. Individual compounds were detected by a UV detector at 295 nm. The data were obtained/analyzed by a software, ChromNAV (manufactured by JASCO Corporation). To identify an unchanged compound within the blood plasma constituents, the compound itself was directly analyzed as a standard substance by HPLC and the retention times of these compounds were compared. In the MS analysis, LC-MS/MS system (Agilent 1200 HPLC-Chip and 6520 Accurate-Mass Q-TOF), manufactured by Agilent Technologies, was used. The pretreated sample was allowed to adsorb onto a C18 chip by use of a mobile phase consisting of acetonitrile (25%) and water (75%) containing formic acid (0.1%), and thereafter, the blood plasma constituents were separated by a mobile phase consisting of acetonitrile (60%) and water (40%) containing formic acid (0.1%). The MS spectrum of the blood plasma constituents separated was detected (obtained) by a mass spectrometer, and data was obtained/analyzed by a software, MassHunter Qualitative Analysis (Agilent Technologies).
# [3] = biological target: human LDH5 (tetramer of LDHA) (Homo sapiens, UniProt P00338); assay: Lactate dehydrogenase inhibitory action, enzymatic reaction plus chromogenic reaction (LDH5); type: biochemical; details: FIG. 1A
# Procedure: as §1, §2
# [4] = Solubility in lipid (choice of vehicle); type: physicochemical
# [5] = system: epileptic seizures in hippocampal sclerosis model mouse; assay: Pharmacological effect evaluation using a hippocampal sclerosis model mouse; type: in vivo, ICR mice
# Procedure: Pharmacological Effect Evaluation by Using a Hippocampal Sclerosis Model Mouse (Compound No. 2, FIG. 11):
# Hippocampal sclerosis model mice for use in evaluating anti-epileptic action were prepared according to the literatures already published (Non-Patent Literatures 3 and 13). First, 6-7 week-old ICR mice were each anesthetized with a mixed solution of ketamine (100 mg/kg) and xylazine (40 mg/kg) and fixed to a stereotaxic apparatus. Subsequently, the scalp was removed and a U-shaped plastic frame required for recording electroencephalography in vivo was attached to the head. Then, a small amount of kainic acid (0.8 nmol, 40 nL) for inducing epilepsy was injected to the dorsal hippocampus (1.6 mm posterior to the bregma, 1.6 mm laterally from the center line, 1.4 mm (depth) from the brain surface) via a micro glass electrode and a metal electrode (diameter 200 μm) for measuring epileptic seizures was embedded in the proximity of the injection site of kainic acid. A reference electrode was installed in the cerebellum. Three weeks after the surgery, epileptic seizures spontaneously generated from the hippocampus were measured to evaluate anti-epilepsy action. Each mouse head was immobilized via a U-shaped frame, brain waves of the hippocampus was recorded through an analog filter of 0.5-30 Hz and digitized by an AD converter at a sampling rate of 1 kHz. After baseline brain wave was measured for one hour, a vehicle or Compound No. 2 was orally administered to each mouse by a disposable sonde, and their brain waves were recorded for further 3 hours. Epileptic seizures were analyzed by Igor Pro (WaveMetrics) and epileptic seizures lasting for 8 seconds or more were counted. Statistical analysis was carried out by SigmaPlot (Systat Software).
# [6] = system: lactate dehydrogenase; details: Non-Patent Literature 3; cited from earlier work
# Chain of human LDH1 (tetramer of LDHB) (P07195 whole entry): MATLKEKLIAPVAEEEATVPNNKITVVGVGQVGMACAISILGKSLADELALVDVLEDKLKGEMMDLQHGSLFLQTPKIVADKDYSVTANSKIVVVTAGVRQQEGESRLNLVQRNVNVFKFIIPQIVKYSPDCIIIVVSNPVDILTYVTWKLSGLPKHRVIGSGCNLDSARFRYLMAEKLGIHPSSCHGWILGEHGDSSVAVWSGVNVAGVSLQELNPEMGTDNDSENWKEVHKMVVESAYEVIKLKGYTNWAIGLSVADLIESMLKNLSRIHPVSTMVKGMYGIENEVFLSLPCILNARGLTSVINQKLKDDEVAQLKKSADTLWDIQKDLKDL
Compound,inhibitory activity against LDHB (in words) [1],unchanged compound in the blood after oral administration [2],in vivo metabolic stability [2],concentration at which inhibitory activity against LDHA was exerted ([3]; n=3) [µM],solubility in lipid [4],"epileptic seizure in the hippocampus ([5]; 150 mg/kg oral, 2.5 hours after administration, FIG. 11B)","number of seizures, dose dependency versus vehicle ([5]; dose of 50 mg/kg oral, 2-3 hours after administration, FIG. 11D, n=11)","number of spontaneous epileptic seizures per hour versus baseline ([5]; oral, one hour after the administration, FIG. 11C, n=10)","inhibitory activity against LDHA (in words) ([3]; n=3, compared with compound No. 1 (5 μM))",inhibitory action against lactate dehydrogenase [6]
"O=C(/C=C/c1ccc2c(c1)OCO2)c1ccc(-c2ccccc2)cc1 [Compound No. 1, reference compound]",almost the same strong inhibitory activity,quickly disappears,low,5,highly soluble in lipid,,,,,
OC(/C=C/c1ccc2c(c1)OCO2)c1ccc(-c2ccccc2)cc1 (centres unmarked) [Compound No. 2],almost the same strong inhibitory activity,maintained,high,,highly soluble in lipid,suppressed,significantly decreases,significant decrease,exert an inhibitory activity at the same concentration,
OC(/C=C/c1ccc2c(c1)OCO2)c1ccc(-c2ccc(F)cc2)cc1 (centres unmarked) [Compound No. 4],,maintained,high,,highly soluble in lipid,,,,,
OC(/C=C/c1ccc2c(c1)OCO2)c1ccc(-c2ccccc2)cc1F (centres unmarked) [Compound No. 9],,maintained,high,,highly soluble in lipid,,,,,
CC(C)(C)C(O)/C=C/c1ccc2c(c1)OCO2 (centres unmarked) [stiripentol],,,,,,,,,,weak
